Measured values reported in patent US20070203091A1, “Methods and therapeutic compositions for improving liver, blood flow and skeletal muscle functions in advanced diseases and aging” (priority 2006, published 2007).
Entries after “also recorded” stand apart in the source; their conditions may differ.

Columns and labels:
[1] = cited from earlier work
[2] = Cachexia markers Part II: blood TNF-alpha, Interleukin-6, Phase I study; type: in vivo, human
From the text: TNF-alpha is an acknowledged independent negative prognostic factor of morbidity and mortality in the elderly (30).

[3] = Quality of life (EORTC QLQ-C30), appetite, energy and body weight, Phase I study; type: in vivo, human
From the text: Nine qualified patients have been enrolled in the study as of Sep. 1, 2001; seven of which received the first 3 cycles of the study drug and are therefore evaluable for the primary endpoint. Two of the seven evaluable patients had advanced prostate cancer with bone metastases and one each had advanced mesothelioma, metastatic breast cancer, metastatic melanoma, metastatic colon cancer and renal cell carcinoma.
Three of these parameters are EORTC QLQ-C30 patient-oriented questionnaire, skeletal (voluntary) muscle strength and percent body fat. […] The screening value is used as the patients' baseline. In some patients a deterioration in overall quality of life between screening and week 1, prior to the administration of study drug has been observed. […] A more accurate baseline for evaluation of the efficacy of ATP treatment on cancer cachexia and quality of life parameters is therefore recommended.

[4] = Tumor burden endpoints (PSA), Phase I study; type: in vivo, human
[5] = in vivo; cited from earlier work
[6] = Safety and tolerability (NCI CTC version 2 toxicity grades) of ATP infusion, Phase I study; type: in vivo, human
Protocol: Two of the seven evaluable patients had advanced prostate cancer with bone metastases and one each had advanced mesothelioma, metastatic breast cancer, metastatic melanoma, metastatic colon cancer and renal cell carcinoma.
(§1) The 50 μg/kg/min dose could be reduced to 25 μg/kg/min if adverse effects occurred. […] Succeeding infusions in that patient were at the infusion dose tolerated at the end of the previous treatment. If adverse events occurred in patients being infused at 25 μg/kg/min, the infusions were terminated and the patient received no additional infusions.

[7] = Karnofsky Performance Status, Phase I study; type: in vivo, human; conditions: for Karnofsky Performance Status, Change from Baseline, Mean / Karnofsky Performance Status, Change from Baseline, Median / Karnofsky Performance Status, Observed Values, Mean / Karnofsky Performance Status, Observed Values, Median: ITT
From the text: The present patient population was clinically deteriorating rapidly with four of the fifteen patients not meeting the protocol inclusion criteria and being granted exemptions (page 15-18). An amendment to the protocol had to be sought because Karnofsky Performance Status of some patients dropped between the screening date and the first pre-infusion date. Considering the clinical status of the present patient population at the start of the trial along with Karnofsky Performance Score being a surrogate end-point for Quality of Life in advanced, refractory, terminal cancers, these findings support claims reciting benefits to quality of life by claimed treatment in a human host in need thereof.

[8] = ATP pharmacokinetics: blood plasma (extracellular) ATP levels, Phase I study; type: in vivo, human; conditions: for Initial Extracellular ATP Concentration, Median: ITT
Protocol: The solution was administered by continuous intravenous infusions using an Ivac or similar infusion device through venous access in a peripheral vein. If venous access was a problem, either a Hickman catheter or its equivalent, or an Infusaport or its equivalent was inserted to provide vascular access.
as §1

[9] = low levels of ATP administered directly into the duodenum
[10] = Patient 504, while on ATP treatment
[11] = patients 502-505, week 1 (pre-dose) to week 13 (follow-up)
[12] = patients 502-505, week 13 follow-up
[13] = Week 1 (Infusion 1), baseline, N=15

## Nc1ncnc2c1ncn2[C@@H]1O[C@H](COP(=O)(O)OP(=O)(O)OP(=O)(O)O)[C@@H](O)[C@H]1O [ATP, adenosine 5′-triphosphate]
[1]; after the administration of ATP into the duodenum
  arterial oxygen pressure (PaO2): increase
[1]; [9]
  Pulmonary Vascular Resistance: reductions
  arterial blood pressure or heart rate: No effects
  blood flow: increases
  peripheral vascular resistance: reductions
[2]; upon ATP treatment
  Interleukin-6 levels: not stabilized
[2]; week 13
  levels of blood tumor necrosis factor-alpha (TNF-alpha): stabilize
[3]; Patient 502, during the treatment period
  patient's comment on energy / appetite: improved energy levels
[3]; Patient 503, during ATP therapy
  patient's comment on energy / appetite: improved energy and appetite
[3]; [10]
  patient's comment on energy / appetite: increased energy and appetite
  weight: increasing
[3]; Patient 505, while on study
  patient's comment on energy / appetite: improved energy and appetite
[3]; Patient 506
  patient's comment on energy / appetite: more energy and improved appetite
[3]; Patient 507, while on ATP Rx
  Other Endpoints (patient's comment on energy): Felt more energy
[3]; Patient 509
  patient's comment on energy / activity: subjective improvement in energy and activity
[3]; during the study, first nine patients
  subjective comments of several patients on appetite and energy: improved appetite and energy
[3]; patients 502-505, screening (week <1) to follow-up (week 10)
  Global Health Status of the QOL EORTC QLQ-C30: Increases
[3]; patients 502-505, screening to week 10 (follow-up)
  appetite loss: Decreases
[3]; [11]
  body weight: Stabilization
[3]; [12]
  Global Health Status of the QOL EORTC QLQ-C30: decline
  appetite loss: return to screening baseline
[4]; Patient 503, PSA Pre 4000
  Tumor burden Endpoints: PSA Post: Post 3903
[4]; Patient 503, at the end of follow up
  PSA compared to baseline: unchanged
[4]; Patient 507, increased after stopping Rx
  Tumor burden Endpoints: PSA: PSA unchanged
[5]
  half-life of expanded ATP pools in red blood cells: about 6 hours
[6]; Patient 501
  Lab. Toxicity: Nil noted
[6]; Patient 501, Ca Colon, 50 & 75 μg/kg/min, Weeks 1&2
  Clin. Toxicity and CTC-Grade: I Flushing
[6]; Patient 502
  Lab. Toxicity: Nil noted
[6]; Patient 502, Mesothelioma, 50, 75, & 100 μg/kg/min, Weeks 1-8
  Clin. Toxicity and CTC-Grade: I Chest D/Dysp; also recorded: I Flushing; also recorded: I Anxiety
[6]; Patient 503
  Lab. Toxicity: Hb decreased, Grade II: Hb 8.0 g/dl
[6]; Patient 503, Prostate, 50, 75, & 100 μg/kg/min, Weeks 1-8
  Clin. Toxicity and CTC-Grade: II Confusion -
[6]; Patient 504
  Lab. Toxicity: Nil noted
[6]; Patient 505
  Lab. Toxicity: Nil noted
[6]; Patient 505, Melanoma, 50, 75 & 100 μg/kg/min, Weeks 1-8
  Clin. Toxicity and CTC-Grade: I Flushing; also recorded: AVBlock/CHB
[6]; Patient 506
  Lab. Toxicity: bilirubin and LFT's - disease progression: Increasing
[6]; Patient 506, Ca Colon, 50 & 75 & 100 μg/kg/min, Weeks 1-6
  Clin. Toxicity and CTC-Grade: I Headache
[6]; Patient 507
  Lab. Toxicity: Nil noted
[6]; Patient 507, Ca Prostate, 50, 75 & 100 μg/kg/min, Weeks 1-8
  Clin. Toxicity and CTC-Grade: I Nasal stuffiness; also recorded: II increasing pain -
[6]; Patient 508, 50 μg/kg/min, Week 1
  Lab. Toxicity: Nil noted
[6]; Patient 508, first infusion at 50 μg/kg/min
  clinical toxicities: No clinical toxicities were noted
[6]; Patient 509, Renal cell carcinoma, 50, 75 & 100 μg/kg/min, Weeks 1-8
  Clin. Toxicity and CTC-Grade: I anxiety; also recorded: I nausea; also recorded: I vomiting
[6]; Patient 509, at FU
  Lab. Toxicity: AST/Alk Phos increase: At FU grade I
[6]; continuous 8 hour intravenous infusion, first nine patients
  patients tolerating the maximum allowable dose of 100 μg/kg/min: seven of nine
[6]; seen in patient 506
  tolerability in terminal patients: well tolerated
[7]; ITT patient population
  Karnofsky Performance Status: stabilize
[7]; [13]
  Karnofsky Performance Status, Change from Baseline, Mean: 0.0%
  Karnofsky Performance Status, Change from Baseline, Median: 0.0%
  Karnofsky Performance Status, Observed Values, Mean: 78.0%
  Karnofsky Performance Status, Observed Values, Median: 80.00%
[7]; Week 2 (Infusion 2), N=14
  Karnofsky Performance Status, Change from Baseline, Mean: −2.1%
  Karnofsky Performance Status, Change from Baseline, Median: 0.0%
  Karnofsky Performance Status, Observed Values, Mean: 77.1%
  Karnofsky Performance Status, Observed Values, Median: 75.0%
[7]; Week 3 (Infusion 3), N=13
  Karnofsky Performance Status, Change from Baseline, Mean: −2.3%
  Karnofsky Performance Status, Change from Baseline, Median: 0.0%
  Karnofsky Performance Status, Observed Values, Mean: 76.9%
  Karnofsky Performance Status, Observed Values, Median: 80.0%
[7]; Week 4 (Infusion 4), N=11
  Karnofsky Performance Status, Change from Baseline, Mean: −0.9%
  Karnofsky Performance Status, Change from Baseline, Median: 0.0%
  Karnofsky Performance Status, Observed Values, Mean: 78.2%
  Karnofsky Performance Status, Observed Values, Median: 80.0%
[7]; Week 5 (Infusion 5), N=10
  Karnofsky Performance Status, Change from Baseline, Mean: −7.0%
  Karnofsky Performance Status, Change from Baseline, Median: 0.0%
  Karnofsky Performance Status, Observed Values, Mean: 71.0%
  Karnofsky Performance Status, Observed Values, Median: 75.0%
[7]; Week 6 (Infusion 6), N=9
  Karnofsky Performance Status, Change from Baseline, Mean: −4.4%
  Karnofsky Performance Status, Change from Baseline, Median: 0.0%
  Karnofsky Performance Status, Observed Values, Mean: 74.4%
  Karnofsky Performance Status, Observed Values, Median: 80.0%
[7]; Week 7 (Infusion 7), N=7
  Karnofsky Performance Status, Change from Baseline, Mean: −4.3%
  Karnofsky Performance Status, Change from Baseline, Median: 0.0%
  Karnofsky Performance Status, Observed Values, Mean: 72.9%
  Karnofsky Performance Status, Observed Values, Median: 70.0%
[7]; Week 8 (Infusion 8), N=7
  Karnofsky Performance Status, Change from Baseline, Mean: −5.7%
  Karnofsky Performance Status, Change from Baseline, Median: −10.0%
  Karnofsky Performance Status, Observed Values, Mean: 71.4%
  Karnofsky Performance Status, Observed Values, Median: 70.0%
[7]; Week 10 (Follow-up), N=6
  Karnofsky Performance Status, Change from Baseline, Mean: −5.0%
  Karnofsky Performance Status, Change from Baseline, Median: −5.0%
  Karnofsky Performance Status, Observed Values, Mean: 73.3%
  Karnofsky Performance Status, Observed Values, Median: 70.0%
[7]; Week 13 (Follow-up), N=5
  Karnofsky Performance Status, Change from Baseline, Mean: −4.0%
  Karnofsky Performance Status, Change from Baseline, Median: 0.0%
  Karnofsky Performance Status, Observed Values, Mean: 76.0%
  Karnofsky Performance Status, Observed Values, Median: 80.0%
[7]; [11]
  Karnofsky Performance Status: Small increases
[8]; ATP continuously for eight hours
  blood plasma (extracellular) ATP levels: increases
[8]; Week 1 (Infusion 1), 4 hours into infusion, N=13
  Initial Extracellular ATP Concentration, Median: 0.109 µM
[8]; Week 1 (Infusion 1), 8.25 hours, N=1
  Initial Extracellular ATP Concentration, Median: 0.141 µM
[8]; Week 1 (Infusion 1), 9 hours, N=10
  Initial Extracellular ATP Concentration, Median: 0.150 µM
[8]; Week 1 (Infusion 1), 10 hours, N=12
  Initial Extracellular ATP Concentration, Median: 0.091 µM
[8]; Week 1 (Infusion 1), 11 hours, N=12
  Initial Extracellular ATP Concentration, Median: 0.062 µM
[8]; Week 1 (Infusion 1), 12 hours, N=11
  Initial Extracellular ATP Concentration, Median: 0.044 µM
[8]; Week 1 (Infusion 1), 14 hours, N=8
  Initial Extracellular ATP Concentration, Median: 0.029 µM
[8]; Week 1 (Infusion 1), 16 hours, N=10
  Initial Extracellular ATP Concentration, Median: 0.050 µM
[8]; Week 1 (Infusion 1), 20 hours, N=8
  Initial Extracellular ATP Concentration, Median: 0.052 µM
[8]; Week 1 (Infusion 1), 24 hours, N=12
  Initial Extracellular ATP Concentration, Median: 0.079 µM
[8]; Week 1 (Infusion 1), […], N=10
  Initial Extracellular ATP Concentration, Median: 0.238 µM
[8]; Week 3 (Infusion 3), 4 hours into infusion, N=9
  Initial Extracellular ATP Concentration, Median: 0.200 µM
[8]; Week 3 (Infusion 3), 8 hours (before the end), N=9
  Initial Extracellular ATP Concentration, Median: 0.240 µM
[8]; Week 3 (Infusion 3), 8.25 hours, N=1
  Initial Extracellular ATP Concentration, Median: 0.055 µM
[8]; Week 3 (Infusion 3), 9 hours, N=9
  Initial Extracellular ATP Concentration, Median: 0.170 µM
[8]; Week 3 (Infusion 3), 10 hours, N=9
  Initial Extracellular ATP Concentration, Median: 0.060 µM
[8]; Week 3 (Infusion 3), 11 hours, N=10
  Initial Extracellular ATP Concentration, Median: 0.060 µM
[8]; Week 3 (Infusion 3), 12 hours, N=8
  Initial Extracellular ATP Concentration, Median: 0.065 µM
[8]; Week 3 (Infusion 3), 14 hours, N=6
  Initial Extracellular ATP Concentration, Median: 0.032 µM
[8]; Week 3 (Infusion 3), 16 hours, N=5
  Initial Extracellular ATP Concentration, Median: 0.040 µM
[8]; Week 3 (Infusion 3), 20 hours, N=5
  Initial Extracellular ATP Concentration, Median: 0.070 µM
[8]; Week 3 (Infusion 3), 24 hours, N=8
  Initial Extracellular ATP Concentration, Median: 0.044 µM
[8]; Week 3 (Infusion 3), Time ‘0’ (pre-infusion), N=10
  Initial Extracellular ATP Concentration, Median: 0.055 µM
[8]; Week 3 (Infusion 3), […], N=9
  Initial Extracellular ATP Concentration, Median: 0.200 µM
[8]; Week 8 (infusion 8), 4 hours into infusion, N=3
  Initial Extracellular ATP Concentration, Median: 0.390 µM
[8]; Week 8 (infusion 8), Time ‘0’ (pre-infusion), N=3
  Initial Extracellular ATP Concentration, Median: 0.080 µM
